Measured values reported in patent US11779602B2, “Methods of use for CAR T cells” (ENDOCYTE, INC., priority 2018, dated 2023).

Key:
MDA-MB-231 tumors [1] = experiment: CAR-T/EC17 therapy, fixed dose and dose de-escalation, in mice bearing MDA-MB-231 tumors; type: in vivo; details: 4M5.3-CAR-T 30 million cells, EC17 de-escalation
Source text: The effect of EC17 dose de-escalation was investigated on the anti-tumor activity and the toxicity (body weight changes) of CAR-T therapy. Two different anti-fluorescein scFv were used for the CAR constructions (FIG. 1). The first construct of CAR contains the following domains: antiFL(FITC-E2)scFv-IgG4 hinge (CH2 (L235D, N297Q)-CH3)-CD28 TM-4-1BB-CD3z-T2A-EGFRt. The second construct of CAR contains the following domains: antiFL(FITC-4M5.3)scFv-IgG4 hinge (CH2 (L235D, N297Q)-CH3)-CD28 TM-4-1BB-CD3z-T2A-EGFRt. The nucleic acid sequence and amino acid sequence of the CAR of each construct are shown as SEQ ID NOS:1 to 4. Human T cells were isolated, activated and transduced with a lentiviral vector carrying the appropriate CAR gene. CD4+ T cells with the CAR-modification and CD8+ T cells with the CAR-modification were isolated and cultured separately in vitro for about 7 days. CD4+ CAR-T cells and CD8+ CAR-T cells were mixed at a 1:1 ratio before i.v. administration for animal studies.
The second construct 4M5.3-CAR (antiFL(FITC-4M5.3) scFv-IgG4 hinge (CH2 (L235D, N297Q)-CH3)-CD28 TM-4-1BB-CD3z-T2A-EGFRt) was also evaluated. Mice bearing MDA-MB-231 tumors (150-250 mm^3) were used for in vivo studies to evaluate 4M5.3-CAR-T cells. […]

MDA-MB-231 tumors [2] = experiment: EC17/E2-CAR T-cell therapy in NSG mice with and without MDA-MB-231 tumors; type: in vivo
Description: MDA-MB-231 tumor cells were grown in folate-deficient RPMI 1640 with 5-10% FBS at 37° C. in a 5% CO2 humidified atmosphere. MDA-MB-231 tumor cells were inoculated subcutaneously at 2.5×10^6 cells per animal. Only […] mice were inoculated and the remaining 22 mice were kept tumor-free.
EGFRt-sorted anti-FITC E2 scFv-CAR T cells were frozen in a T-cell freezing medium. Vials of frozen CAR-T cells were immediately stored at −80° C. The CAR-T cells were quickly thawed at 37° C., washed twice with PBS, and used for animal injection at 10 million viable EGFRt+ E2 CAR-T cells (CD4/CD8 at ˜1:1) per animal. A small aliquot was taken on the day infusion for flow cytometric analysis of E2-CAR T-cell phenotypes.
Mouse blood samples were processed for plasma and stored at −20° C. until use. A human TH1 cytokine panel (Biolegend, Cat. No. 740009) and a human hematopoietic stem cell cytokine panel (Biolegend, Cat. No. 740610) was used to detect human cytokines in the mouse blood. A mouse 13-plex inflammatory cytokine panel (Biolengend, No. 740150) was used to detect mouse cytokines. All analyses were performed per the manufacturer's instructions.
Whole blood cell analysis: Plasma was removed from predetermined volumes of whole EDTA treated blood and RBCs were lysed with RBC lysis solution. […] Determination of the concentration of CAR T cells in each blood sample was calculated according to Invitrogen's instructions. CAR T cells were identified as human CD3ε+ EGFRt+ events and easily distinguished and counted using the Kaluza™ flow cytometry software. The number of CAR T cells in the circulation of each infused mouse was then represented on the graphs as the total number of CAR T cells per 100 μL of whole blood analyzed. Statistical significance was determined by utilizing an unpaired, two-tailed, students t-test with significance set at p<0.05. […]

SMILES: NC1=NC2N=CC(CNc3ccc(C(=O)N[C@@H](CCC(=O)NCCNC(=S)Nc4ccc(-c5c6ccc(=O)cc-6oc6cc(O)ccc56)c(C(=O)O)c4)C(=O)O)cc3)=NC2C(=O)N1 (some centres unmarked) [EC17, FA-(γ)-ethylenediamine-FITC]
- EC17 dose dependence of anti-tumor activity and body weight loss (MDA-MB-231 tumors [1]): dose dependent anti-tumor activity and body weight loss
- IFN-γ production, tumor-bearing vs tumor-free mice (MDA-MB-231 tumors [2]; 10 million E2 CAR-T cells, EC17 500 nmol/kg days 2 and 10, plasma 20 hours after second dose): 23 fold
- increase in circulating E2 CAR T cells per 100 uL whole blood vs cohorts without EC17 (MDA-MB-231 tumors [2]; cohorts which received EC17 stimulation): more than 10 fold
- CAR-T cell expansion by FACS in tumor-free mice (MDA-MB-231 tumors [2]; post EC17 SIW500×2 doses): no detectable CAR-T cell expansion
- cytokine production (IL2, IFN-γ, IL-10) in tumor-bearing mice (MDA-MB-231 tumors [2]; with vs without EC17 dose): EC17-dependent
